In the NIST ThermoML archive (doi:10.1016/j.jct.2016.11.029):
± gives the expanded uncertainty stated by the source.

Columns and labels:
[1] = Molar enthalpy of transition or fusion; details: Crystal; DSC
[2] = Crystal; DTA

Q: For `Clc1ccc2c(c1)Nc1ccccc1S2` [2-chlorophenothiazine], which “Molar enthalpy of transition or fusion” value [1] is on record?
A: 5.16 ± 0.22 kcal/mol

Q: And the Normal melting temperature [2]?
A: 199.80 ± 1.1 °C
